Experimental findings from ChEMBL document CHEMBL1201862, “PubChem BioAssay data set” (2004) are described below.

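These data come from cells grown in 96-well plates and exposed to compound for 48 hours at five concentrations. GI50 = concentration required for 50% inhibition of growth.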 Calls of active or inactive are those of the source. Rule as the data show it: active = GI50 up to about 1.1 µM and inactive = higher.

Test systems include ACHN; CAKI-1; HCC 2998; HCT-15; HOP-62; HT-29; IGROV-1; M14; MDA-N; Malme-3M; NCI-H522; NCI/ADR-RES; OVCAR-8; SK-OV-3; SN12C; SNB-75; SR; SW-620; UACC-257; UO-31.
Holding throughout (assay): inhibition of tumour cell growth, NCI panel, 48 h

In the case of `CCn1cc(C(=O)O)c(=O)c2cc(F)c(N3CCN(CN4C(=O)/C(=N\c5ncc(Cc6cc(OC)c(OC)c(OC)c6)c(N)n5)c5cc(Cl)ccc54)CC3)cc21`, the GI50 was > 100 µM (inactive) in the experiment on ACHN; > 100 µM (inactive) in the experiment on CAKI-1; 42.2 µM (inactive) in the experiment with HCC 2998; 91.6 µM with HCT-15; > 100 µM (inactive) with HOP-62; > 100 µM (inactive) in the experiment with HT-29. Also, the GI50 was 8.24 µM (inactive) with IGROV-1; > 100 µM (inactive) in the experiment with M14; 45.5 µM (inactive) in the experiment with MDA-N; > 100 µM (inactive) with Malme-3M; > 100 µM (inactive) with NCI-H522; > 100 µM (inactive) in the experiment with NCI/ADR-RES. The GI50 was > 100 µM (inactive) in the experiment on OVCAR-8; > 100 µM (inactive) in the experiment on SK-OV-3; > 100 µM (inactive) with SN12C; > 100 µM (inactive) with SNB-75; 41.4 µM (inactive) with SR; 5.3 µM (inactive) in the experiment with SW-620. Further, the GI50 in the experiment with UACC-257 and in the experiment with UO-31 was > 100 µM (inactive) in each case.

`CSc1cc(N)ccc1/N=N/c1ccc(S(N)(=O)=O)cc1`: the GI50 in the experiment with ACHN was 27.2 µM (inactive); in the experiment on CAKI-1, 36.1 µM (inactive); in the experiment on HCC 2998, 53.6 µM (inactive); in the experiment with HCT-15 it was 21.8 µM; with HOP-62 it was 29.4 µM (inactive); in the experiment with HT-29, 30.3 µM (inactive). The GI50 in the experiment on IGROV-1 was 23.1 µM (inactive); in the experiment on M14, 38.1 µM (inactive); with MDA-N, 61.7 µM (inactive); with Malme-3M, 24.7 µM (inactive); in the experiment with NCI-H522, 17.7 µM (inactive); with NCI/ADR-RES it was 29.6 µM (inactive). Further, the GI50 is 22.3 µM (inactive) in the experiment with OVCAR-8; 35.8 µM (inactive) in the experiment on SK-OV-3; 27.5 µM (inactive) with SN12C; 15.5 µM (inactive) in the experiment with SNB-75; 34.6 µM (inactive) with SR; 41.7 µM (inactive) in the experiment on SW-620. The results for the GI50 in the experiment on UACC-257 and with UO-31 were 80 µM (inactive) and 16.5 µM (inactive), respectively.

Take `COC(=O)c1ccccc1CC1Cc2cc3c(cc2C1=O)CCC3` (stereo not given): the GI50 with ACHN was 27.7 µM (inactive); in the experiment with CAKI-1, 11.1 µM (inactive); with HCC 2998, > 41.1 µM (inactive); in the experiment with HCT-15 it was 4.02 µM; in the experiment on HOP-62, 17.1 µM (inactive); in the experiment on HT-29, 8.71 µM (inactive). The GI50 with IGROV-1 is 16 µM (inactive); in the experiment with M14, 10.4 µM (inactive); in the experiment with MDA-N, 1.93 µM (inactive); with Malme-3M it was 7.14 µM (inactive); in the experiment with NCI-H522, 5.28 µM (inactive); in the experiment on NCI/ADR-RES, 3.05 µM (inactive). The GI50 in the experiment with OVCAR-8 was 20.1 µM (inactive); with SK-OV-3 it was 18.5 µM (inactive); in the experiment on SN12C it was 11.5 µM (inactive); in the experiment on SNB-75, 11.4 µM (inactive); in the experiment on SR, 4.06 µM (inactive); in the experiment with SW-620, 3.82 µM (inactive). The results for the GI50 in the experiment on UACC-257 and with UO-31 were 19.3 µM (inactive) and 22.3 µM (inactive), respectively.

Regarding `NC(Cc1cccnn1)C(=O)O` (stereo not given), the GI50 is > 100 µM (inactive) in the experiment with ACHN; > 100 µM (inactive) in the experiment on CAKI-1; > 100 µM (inactive) with HCC 2998; over 100 µM in the experiment on HCT-15; > 100 µM (inactive) in the experiment with HOP-62; > 100 µM (inactive) in the experiment with HT-29. The GI50 in the experiment on IGROV-1, with M14, in the experiment on MDA-N, in the experiment with Malme-3M, with NCI-H522 and with NCI/ADR-RES was > 100 µM (inactive) in each case. The GI50 in the experiment on OVCAR-8, with SK-OV-3, in the experiment on SN12C, with SNB-75, in the experiment on SR and with SW-620 was > 100 µM (inactive) in each case. Besides, the GI50 with UACC-257 and with UO-31 was > 100 µM (inactive) each time.

Turning to `CN(C(=O)c1ccc(Cl)s1)C(=S)N(C)C(=O)c1ccc(Cl)s1`, the GI50 in the experiment on ACHN was > 10 µM (inactive); with CAKI-1 it was > 10 µM (inactive); in the experiment with HCC 2998, > 10 µM (inactive); with HCT-15, over 10 µM; with HOP-62, > 10 µM (inactive); with HT-29, > 10 µM (inactive). Moreover, the GI50 in the experiment with IGROV-1, in the experiment with M14, with MDA-N, in the experiment with Malme-3M, in the experiment with NCI-H522 and with NCI/ADR-RES was > 10 µM (inactive) in each case. The GI50 with OVCAR-8, in the experiment with SK-OV-3, with SN12C, in the experiment with SNB-75, with SR and in the experiment with SW-620 was > 10 µM (inactive) each time. Also, the GI50 with UACC-257 and in the experiment on UO-31 was > 10 µM (inactive) in each case.

Regarding `Cc1ccc(C(=O)c2[nH]c(Nc3cc(C)ccn3)c(C(=S)Nc3ccccc3)c2N)cc1`, the GI50 in the experiment with ACHN is > 100 µM (inactive); in the experiment on CAKI-1, > 100 µM (inactive); in the experiment with HCC 2998 it was > 100 µM (inactive); in the experiment with HCT-15, over 100 µM; in the experiment on HOP-62, > 100 µM (inactive); in the experiment on HT-29, > 100 µM (inactive). The GI50 in the experiment with IGROV-1, in the experiment with M14, in the experiment with MDA-N, in the experiment on Malme-3M, in the experiment with NCI-H522 and in the experiment with NCI/ADR-RES was > 100 µM (inactive) in each case. Further, the GI50 in the experiment on OVCAR-8, with SK-OV-3, with SN12C, in the experiment with SNB-75, with SR and in the experiment on SW-620 was > 100 µM (inactive) each time. In addition, the GI50 in the experiment with UACC-257 and with UO-31 was > 100 µM (inactive) throughout.

`CCCCCC(=O)OC[n+]1ccc2c(C)c3[nH]c4ccc(OC)cc4c3c(C)c2c1`: the GI50 was 0.106 µM (active) with ACHN; 1.06 µM (active) in the experiment with CAKI-1; 0.543 µM (active) in the experiment with HCC 2998; 0.169 µM in the experiment on HCT-15; 0.586 µM (active) in the experiment on HOP-62; 0.0897 µM (active) in the experiment with HT-29. Moreover, the GI50 is 0.234 µM (active) with IGROV-1; 0.622 µM (active) in the experiment with M14; 0.332 µM (active) in the experiment on MDA-N; 1.37 µM (inactive) with Malme-3M; 0.566 µM (active) in the experiment on NCI-H522; 0.213 µM (active) in the experiment on NCI/ADR-RES. Further, the GI50 was 0.112 µM (active) in the experiment on OVCAR-8; 0.628 µM (active) in the experiment on SK-OV-3; 0.117 µM (active) with SN12C; 1.11 µM (active) in the experiment on SNB-75; 0.0498 µM (active) with SR; 0.0735 µM (active) with SW-620. Also, the GI50 is 1.28 µM (inactive) in the experiment with UACC-257 and 0.625 µM (active) in the experiment on UO-31.

Consider `CN(C)CCNC(=O)c1cccc(N(C)C(=O)c2ccccc2)c1[N+](=O)[O-]`, for which the GI50 in the experiment with ACHN was > 100 µM (inactive); in the experiment with CAKI-1, > 100 µM (inactive); with HCC 2998, > 100 µM (inactive); with HCT-15, over 100 µM; in the experiment with HOP-62, > 100 µM (inactive); in the experiment with HT-29 it was > 100 µM (inactive). Also, the GI50 in the experiment on IGROV-1, in the experiment on M14, in the experiment on MDA-N, with Malme-3M, with NCI-H522 and in the experiment with NCI/ADR-RES was > 100 µM (inactive) each time. The GI50 in the experiment on OVCAR-8 was > 100 µM (inactive); with SK-OV-3, > 100 µM (inactive); in the experiment on SN12C, > 10 µM (inactive); in the experiment on SNB-75 it was 53.6 µM (inactive); with SR, > 100 µM (inactive); in the experiment on SW-620, > 100 µM (inactive). The GI50 in the experiment on UACC-257 was > 10 µM (inactive); in the experiment on UO-31, > 100 µM (inactive).

`O=C(c1cccc(OCc2ccccc2)c1OCc1ccccc1)N1CCSC1=S`: the GI50 with ACHN was 33.8 µM (inactive); in the experiment on CAKI-1, 31 µM (inactive); in the experiment with HCC 2998, 28 µM (inactive); in the experiment with HCT-15, 23.2 µM; in the experiment on HOP-62 it was 27.2 µM (inactive); in the experiment with HT-29, 25.2 µM (inactive). Also, the GI50 in the experiment with IGROV-1 is 28.6 µM (inactive); in the experiment with M14 it was 33.2 µM (inactive); in the experiment on MDA-N, 27.9 µM (inactive); in the experiment on Malme-3M, 23.6 µM (inactive); in the experiment with NCI-H522, 12.3 µM (inactive); in the experiment with NCI/ADR-RES it was 10.6 µM (inactive). Also, the GI50 with OVCAR-8 is 21.8 µM (inactive); in the experiment on SK-OV-3, 30.1 µM (inactive); in the experiment with SN12C, 19.5 µM (inactive); in the experiment with SNB-75 it was 5.64 µM (inactive); in the experiment with SR, 8.36 µM (inactive); in the experiment with SW-620, 43.4 µM (inactive). The GI50 was 28.5 µM (inactive) in the experiment on UACC-257 and 10.6 µM (inactive) with UO-31.
